Source: patent US20170320870A1 (Medical Research Council Technology, priority 2009, published 2017)

biological target: T1, LRRK2 wild type (recombinant human, catalytic domain amino acids 970-2527, GST-tagged) (Homo sapiens, UniProt Q5S007); experiment: LRRK2 wild type protein kinase assay ([γ-33P] ATP, peptide substrate […]), IC50; type: biochemical; settings: LRRK2 (variant not given); read-out: Potency score, LRRK2 IC50
T1 construct: The wild type used was recombinant human, catalytic domain (amino acids 970-2527) GST-tagged, expressed in insect cells; GST; purchased Invitrogen Corporation PV4873; host or cells: insect cells
T1 sequence (Q5S007 970-2527): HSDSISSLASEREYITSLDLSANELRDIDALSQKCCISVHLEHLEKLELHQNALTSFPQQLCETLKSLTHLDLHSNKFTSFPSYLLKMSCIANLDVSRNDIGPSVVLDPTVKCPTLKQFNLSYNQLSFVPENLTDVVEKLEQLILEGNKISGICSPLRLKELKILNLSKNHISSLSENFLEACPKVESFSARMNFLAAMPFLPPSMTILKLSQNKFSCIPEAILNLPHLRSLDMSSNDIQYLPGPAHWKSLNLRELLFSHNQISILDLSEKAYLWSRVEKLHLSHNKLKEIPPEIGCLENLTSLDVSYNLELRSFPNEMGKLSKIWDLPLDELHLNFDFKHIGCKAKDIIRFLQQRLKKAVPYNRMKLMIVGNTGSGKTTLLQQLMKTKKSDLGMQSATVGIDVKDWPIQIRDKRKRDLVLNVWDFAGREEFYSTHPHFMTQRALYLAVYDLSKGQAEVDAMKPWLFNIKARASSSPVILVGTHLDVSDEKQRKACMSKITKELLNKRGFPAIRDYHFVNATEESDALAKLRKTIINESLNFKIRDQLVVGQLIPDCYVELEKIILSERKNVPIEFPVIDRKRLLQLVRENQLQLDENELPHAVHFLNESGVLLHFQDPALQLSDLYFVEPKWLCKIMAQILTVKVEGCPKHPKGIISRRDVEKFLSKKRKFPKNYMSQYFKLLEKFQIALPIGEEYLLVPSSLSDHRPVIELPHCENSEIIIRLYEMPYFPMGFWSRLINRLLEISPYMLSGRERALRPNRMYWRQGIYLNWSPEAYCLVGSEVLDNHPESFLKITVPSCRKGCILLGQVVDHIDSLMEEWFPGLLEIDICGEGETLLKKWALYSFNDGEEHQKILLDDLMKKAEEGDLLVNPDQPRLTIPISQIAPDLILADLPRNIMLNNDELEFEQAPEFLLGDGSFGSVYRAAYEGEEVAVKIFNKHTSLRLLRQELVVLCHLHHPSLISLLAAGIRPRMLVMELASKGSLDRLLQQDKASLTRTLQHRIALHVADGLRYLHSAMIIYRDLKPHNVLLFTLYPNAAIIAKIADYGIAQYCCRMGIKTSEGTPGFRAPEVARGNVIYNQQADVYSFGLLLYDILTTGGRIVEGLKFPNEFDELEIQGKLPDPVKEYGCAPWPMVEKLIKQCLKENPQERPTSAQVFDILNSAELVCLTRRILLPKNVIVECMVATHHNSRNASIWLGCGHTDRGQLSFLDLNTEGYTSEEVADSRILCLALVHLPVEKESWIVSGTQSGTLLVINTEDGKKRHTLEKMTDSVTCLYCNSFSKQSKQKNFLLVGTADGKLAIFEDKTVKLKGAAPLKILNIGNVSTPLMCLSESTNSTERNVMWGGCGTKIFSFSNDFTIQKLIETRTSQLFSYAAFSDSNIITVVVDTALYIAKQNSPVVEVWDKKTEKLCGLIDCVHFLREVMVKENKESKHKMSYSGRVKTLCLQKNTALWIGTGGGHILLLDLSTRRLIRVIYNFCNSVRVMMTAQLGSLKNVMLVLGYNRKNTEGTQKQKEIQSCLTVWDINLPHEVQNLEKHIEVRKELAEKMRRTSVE
Procedure, shortened: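 Insect-cell-expressed enzyme (~5 nM), no activation, incubated 180 min at ~21 °C in 50 mM Tris-HCl pH 7.5, 0.1 mM EGTA, 1 mM DTT, 10 mM MgCl2 with 100 μM peptide substrate and [γ-33P]ATP. Reaction stopped with orthophosphoric acid, captured on P81 filters and counted; IC50 from 10 concentrations in duplicate.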

SMILES | IC50 [nM]
O=C(CCc1n[nH]c2ccnc(NC3CCCCC3)c12)NC1CCCC1 [Example 184, 3-(4-Cyclohexylamino-1H-pyrazolo[4,3-c]pyridin-3-yl)-N-cyclopentyl-propionamide] | 100 to 1000
O=C(CCc1n[nH]c2ccnc(NC3CCCCC3)c12)NCC1CCOCC1 [Example 185, 3-(4-Cyclohexylamino-1H-pyrazolo[4,3-c]pyridin-3-yl)-N-(tetrahydro-pyran-4-ylmethyl)-propionamide] | 1000 to 10000
O=C(CCc1n[nH]c2ccnc(NC3CCCCC3)c12)NCc1cccc(F)c1 [Example 186, 3-(4-Cyclohexylamino-1H-pyrazolo[4,3-c]pyridin-3-yl)-N-(3-fluoro-benzyl)-propionamide] | 1000 to 10000
O=C(CCc1n[nH]c2ccnc(NC3CCCCC3)c12)Nc1cccc(F)c1 [Example 187, 3-(4-Cyclohexylamino-1H-pyrazolo[4,3-c]pyridin-3-yl)-N-(3-fluoro-phenyl)-propionamide] | 1000 to 10000
O=C(CCc1n[nH]c2ccnc(NC3CCCCC3)c12)Nc1cccnc1 [Example 188, 3-(4-Cyclohexylamino-1H-pyrazolo[4,3-c]pyridin-3-yl)-N-pyridin-3-yl-propionamide] | 1000 to 10000
CN(CCc1ccccc1)C(=O)CCc1n[nH]c2ccnc(NC3CCCCC3)c12 [Example 189, 3-(4-Cyclohexylamino-1H-pyrazolo[4,3-c]pyridin-3-yl)-N-methyl-N-phenethyl-propionamide] | 1000 to 10000
O=C(CCc1n[nH]c2ccnc(NC3CCCCC3)c12)N1CCC[C@@H](c2ccccc2)C1 [Example 190, 3-(4-Cyclohexylamino-1H-pyrazolo[4,3-c]pyridin-3-yl)-1-((S)-3-phenyl-piperidin-1-yl)-propan-1-one] | 100 to 1000
O=C(CCc1n[nH]c2ccnc(NC3CCCCC3)c12)N1CCCC(F)(F)C1 [Example 191, 3-(4-Cyclohexylamino-1H-pyrazolo[4,3-c]pyridin-3-yl)-1-(3,3-difluoro-piperidin-1-yl)-propan-1-one] | < 100
CC1CCN(C(=O)CCc2n[nH]c3ccnc(NC4CCCCC4)c23)CC1 [Example 192, 3-(4-Cyclohexylamino-1H-pyrazolo[4,3-c]pyridin-3-yl)-1-(4-methyl-piperidin-1-yl)-propan-1-one] | 100 to 1000
CCN(CC)C(=O)C1CCCN(C(=O)CCc2n[nH]c3ccnc(NC4CCCCC4)c23)C1 (centres unmarked) [Example 193, 1-[3-(4-Cyclohexylamino-1H-pyrazolo[4,3-c]pyridin-3-yl)-propionyl]-piperidine-3-carboxylic acid diethylamide] | 100 to 1000
O=C(CCc1n[nH]c2ccnc(NC3CCCCC3)c12)N1CCCC(Cc2ccccc2)C1 (centres unmarked) [Example 194, 1-(3-Benzyl-piperidin-1-yl)-3-(4-cyclohexylamino-1H-pyrazolo[4,3-c]pyridin-3-yl)-propan-1-one] | < 100
O=C(CCc1n[nH]c2ccnc(NC3CCCCC3)c12)N1CCCC(Oc2cccnc2)C1 (centres unmarked) [Example 195, 3-(4-Cyclohexylamino-1H-pyrazolo[4,3-c]pyridin-3-yl)-1-[3-(pyridin-3-yloxy)-piperidin-1-yl]-propan-1-one] | 100 to 1000
COC1CCCN(C(=O)CCc2n[nH]c3ccnc(NC4CCCCC4)c23)C1 (centres unmarked) [Example 196, 3-(4-Cyclohexylamino-1H-pyrazolo[4,3-c]pyridin-3-yl)-1-(3-methoxy-piperidin-1-yl)-propan-1-one] | 100 to 1000
Cc1noc(C2CCCN(C(=O)CCc3n[nH]c4ccnc(NC5CCCCC5)c34)C2)n1 (centres unmarked) [Example 197, 3-(4-Cyclohexylamino-1H-pyrazolo[4,3-c]pyridin-3-yl)-1-[3-(3-methyl-1,2,4-oxadiazol-5-yl)-piperidin-1-yl]-propan-1-one] | 100 to 1000
CC1CCCCN1C(=O)CCc1n[nH]c2ccnc(NC3CCCCC3)c12 (centres unmarked) [Example 198, 3-(4-Cyclohexylamino-1H-pyrazolo[4,3-c]pyridin-3-yl)-1-(2-methyl-piperidin-1-yl)-propan-1-one] | 100 to 1000
CC1CCCN(C(=O)CCc2n[nH]c3ccnc(NC4CCCCC4)c23)C1 (centres unmarked) [Example 199, 3-(4-Cyclohexylamino-1H-pyrazolo[4,3-c]pyridin-3-yl)-1-(3-methyl-piperidin-1-yl)-propan-1-one] | < 100
O=C(CCc1n[nH]c2ccnc(NC3CCCCC3)c12)N1CCCCC1c1ccccc1 (centres unmarked) [Example 201, 3-(4-Cyclohexylamino-1H-pyrazolo[4,3-c]pyridin-3-yl)-1-(2-phenyl-piperidin-1-yl)-propan-1-one] | 100 to 1000
O=C(CCc1n[nH]c2ccnc(NC3CCCCC3)c12)N1CCCC(C(F)(F)F)C1 (centres unmarked) [Example 202, 3-(4-Cyclohexylamino-1H-pyrazolo[4,3-c]pyridin-3-yl)-1-(3-trifluoromethyl-piperidin-1-yl)-propan-1-one] | 100 to 1000
O=C(CCc1n[nH]c2ccnc(NC3CCCCC3)c12)N1CCC(C(F)(F)F)CC1 [Example 203, 3-(4-Cyclohexylamino-1H-pyrazolo[4,3-c]pyridin-3-yl)-1-(4-trifluoromethyl-piperidin-1-yl)-propan-1-one] | 100 to 1000

SMILES | IC50 [nM]
O=C(CCc1n[nH]c2ccnc(NC3CCCCC3)c12)N1CCC(c2ccccc2)CC1 [Example 204, 3-(4-Cyclohexylamino-1H-pyrazolo[4,3-c]pyridin-3-yl)-1-(4-phenyl-piperidin-1-yl)-propan-1-one] | < 100
O=C(CCc1n[nH]c2ccnc(NC3CCCCC3)c12)N1CCOC(c2ccccc2)C1 (centres unmarked) [Example 205, 3-(4-Cyclohexylamino-1H-pyrazolo[4,3-c]pyridin-3-yl)-1-(2-phenyl-morpholin-4-yl)-propan-1-one] | 100 to 1000
O=C(CCc1n[nH]c2ccnc(NC3CCCCC3)c12)N1CCC(c2ccccc2)C1 (centres unmarked) [Example 206, 3-(4-Cyclohexylamino-1H-pyrazolo[4,3-c]pyridin-3-yl)-1-(3-phenyl-pyrrolidin-1-yl)-propan-1-one] | < 100
O=C(CCc1n[nH]c2ccnc(NC3CCCCC3)c12)N1CCC(c2cccnc2)C1 (centres unmarked) [Example 207, 3-(4-Cyclohexylamino-1H-pyrazolo[4,3-c]pyridin-3-yl)-1-(3-pyridin-3-yl-pyrrolidin-1-yl)-propan-1-one] | < 100
O=C(CCc1n[nH]c2ccnc(NC3CCCCC3)c12)N1CCCCC1c1cccnc1 (centres unmarked) [Example 208, 3-(4-Cyclohexylamino-1H-pyrazolo[4,3-c]pyridin-3-yl)-1-(3,4,5,6-tetrahydro-2H-[2,3′]bipyridinyl-1-yl)-propan-1-one] | < 100
O=C(CCc1n[nH]c2ccnc(NC3CCCCC3)c12)N1CCC(c2ccncc2)C1 (centres unmarked) [Example 209, 3-(4-Cyclohexylamino-1H-pyrazolo[4,3-c]pyridin-3-yl)-1-(3-pyridin-4-yl-pyrrolidin-1-yl)-propan-1-one] | < 100
CNC(=O)CCc1n[nH]c2ccnc(NC3CCCCC3)c12 [Example 210, 3-(4-Cyclohexylamino-1H-pyrazolo[4,3-c]pyridin-3-yl)-N-methyl-propionamide] | 1000 to 10000
COCCNC(=O)CCc1n[nH]c2ccnc(NC3CCCCC3)c12 [Example 211, 3-(4-Cyclohexylamino-1H-pyrazolo[4,3-c]pyridin-3-yl)-N-(2-methoxy-ethyl)-propionamide] | 1000 to 10000
CN(C)C(=O)CCc1n[nH]c2ccnc(NC3CCCCC3)c12 [Example 212, 3-(4-Cyclohexylamino-1H-pyrazolo[4,3-c]pyridin-3-yl)-N,N-dimethyl-propionamide] | 100 to 1000
c1ccc(CCc2n[nH]c3ccnc(NC4CCCCC4)c23)cc1 [Example 213, Cyclohexyl-(3-phenethyl-1H-pyrazolo[4,3-c]pyridin-4-yl)-amine] | < 100
c1ccc(CCc2n[nH]c3ccnc(NC4CCCCC4)c23)nc1 [Example 214, Cyclohexyl-[3-(2-pyridin-2-yl-ethyl)-1H-pyrazolo[4,3-c]pyridin-4-yl]-amine] | < 100
c1ccc([C@@H]2CCCN(CCCc3n[nH]c4ccnc(NC5CCCCC5)c34)C2)cc1 [Example 215, Cyclohexyl-{3-[3-((S)-3-phenyl-piperidin-1-yl)-Propyl]-1H-pyrazolo[4,3-c]pyridin-4-yl}-amine] | 1000 to 10000
c1ccc(-c2nnc(CCc3n[nH]c4ccnc(NC5CCCCC5)c34)o2)cc1 [Example 216, Cyclohexyl-{3-[2-(5-phenyl-1,3,4-oxadiazol-2-yl)-ethyl]-1H-pyrazolo[4,3-c]pyridin-4-yl}-amine] | 100 to 1000
c1cc2[nH]nc(CCC3CCNCC3)c2c(NC2CCCCC2)n1 [Example 217, Cyclohexyl-[3-(2-piperidin-4-yl-ethyl)-1H-pyrazolo[4,3-c]pyridin-4-yl]-amine] | 1000 to 10000
c1cc(CCc2n[nH]c3ccnc(NC4CCCCC4)c23)ccn1 [Example 218, Cyclohexyl-[3-(2-pyridin-4-yl-ethyl)-1H-pyrazolo[4,3-c]pyridin-4-yl]-amine] | 100 to 1000
CC(=O)N1CCC(CCc2n[nH]c3ccnc(NC4CCCCC4)c23)CC1 [Example 219, 1-{4-[2-(4-Cyclohexylamino-1H-pyrazolo[4,3-c]pyridin-3-yl)-ethyl]-piperidin-1-yl}-ethanone] | 1000 to 10000
CS(=O)(=O)N1CCC(CCc2n[nH]c3ccnc(NC4CCCCC4)c23)CC1 [Example 220, Cyclohexyl-{3-[2-(1-methanesulfonyl-piperidin-4-yl)-ethyl]-1H-pyrazolo[4,3-c]pyridin-4-yl}-amine] | 100 to 1000
Nc1cccc(CCc2n[nH]c3ccnc(NC4CCCCC4)c23)c1 [Example 221, {3-[2-(3-Amino-phenyl)-ethyl]-1H-pyrazolo[4,3-c]pyridin-4-yl}-cyclohexyl-amine] | < 100
CC(=O)Nc1cccc(CCc2n[nH]c3ccnc(NC4CCCCC4)c23)c1 [Example 222, N-{3-[2-(4-Cyclohexylamino-1H-pyrazolo[4,3-c]pyridin-3-yl)-ethyl]-phenyl}-acetamide] | < 100
